According to US8314078B2, “Silver nanoparticles as anti-microbial” (Vascular Vision Pharmaceutical Co., priority 2009, dated 2012):

Tests used:
S. aureus = test: Minimum Inhibition Concentration (MIC) assay, modified micro-broth dilution, S. aureus; assay type: cell-based, Staphylococcus aureus; conditions: for activity against Staphylococcus aureus: at concentrations up to 1.0 μM; for MIC against S. aureus: mean±SEM, n=3, 18 hours at 37° C.
E. coli = test: Minimum Inhibition Concentration (MIC) assay, modified micro-broth dilution, E. coli; assay type: cell-based, Escherichia coli; conditions: for activity against Escherichia coli: at concentrations up to 1.0 μM; for MIC against E. coli: mean±SEM, n=3, 18 hours at 37° C.

| Substance | activity against Staphylococcus aureus (S. aureus) | MIC against S. aureus (S. aureus) | activity against Escherichia coli (E. coli) | MIC against E. coli (E. coli) |
| --- | --- | --- | --- | --- |
| hyaluronan [HA] | no activity | >1.0 μM of sugar | no activity | >1.0 μM of sugar |
| 2,6-diaminopyridinyl heparin [DAPHP] | no activity | >1.0 μM of sugar | no activity | >1.0 μM of sugar |
